Measurements reported in US5776927A, “Methionine sulfone and S-substituted cysteine sulfone derivatives as enzyme inhibitors” (Corvas International, Inc., priority 1994, dated 1998).

How the values were obtained:
citrated rat plasma = experiment: Ex vivo anticoagulant effect, activated partial thromboplastin time (APTT), rat plasma; conditions: control clotting time 19.75 sec set to 1.0
Protocol: (§1) The ex vivo anticoagulant effects of BzlSO2 -Met(SO2)-Pro-Arg-al was determined by measuring the prolongation of the activated partial thromboplastin time (APTT) over a broad concentration range of the added inhibitor, using pooled normal human and rat plasma. Fresh frozen citrated pooled normal human plasma was obtained from George King Biomedical, Overland Park, Kans. Pooled normal rat plasma was prepared from citrated whole blood collected from anesthetized rats using standard procedures. The plasma was flash frozen and stored at -80° C. until use. Measurements APTT was made using the Coag-A-Mate RA4 automated coagulometer (General Diagnostics, Organon Technica, Oklahoma City, Okla.) using the Automated APTT reagent (Organon Technica, Durham, N.C.) as the initiator of clotting according to the manufacturers instructions.
(§2) The assay was conducted by making a series of dilutions of the test compounds in rapidly thawed plasma followed by adding 200 microliters to the wells of the assay carousel.

citrated human plasma = experiment: Ex vivo anticoagulant effect, activated partial thromboplastin time (APTT), human plasma; conditions: citrated pooled normal human plasma; control clotting time 28.3 sec set to 1.0
Protocol: as §1, §2

[1] = test system: thrombotic occlusion of the rat carotid artery; experiment: Rat model of FeCl3-induced platelet-dependent arterial thrombosis; format: in vivo, rat (male Harlan Sprague Dawley); conditions: i.v. bolus
Text: Kurz, K. D., Main, B. W., and Sandusky, G. E., Thromb. […] In this model a platelet-rich, occlusive thrombus is formed in a segment of the rat carotid artery treated locally with a fresh solution of FeCl3 absorbed to a piece of filter paper. The FeCl3 is thought to diffuse into the treated segment of artery and causes de-endothelialization of the affected vessel surface. […] The effect of a test compound on the incidence of occlusive thrombus formation following the application of the FeCl3 is monitored by ultrasonic flowtometry and is used as the primary end point. The use of flowtometry to measure carotid artery blood flow, is a modification of the original procedure in which thermal detection of clot formation was employed. Kurz, K. D., Main, B. W., and Sandusky, G. E., Thromb. […] Male Harlan Sprague Dawley rats (420-450 g) were acclimated at least 72 hours prior to use and fasted for 12 hours prior to surgery with free access to water. […] Blood pressure, blood flow, heart rate, and respiration were monitored for 60 minutes. The incidence of occlusion (defined as the attainment of zero blood flow) was recorded as the primary end point. […] This allows a direct comparison of the antithrombotic efficacy of BzlSO2 -[…] with other antithrombotic agents which have also been evaluated in this model as described above.

## CS(=O)(=O)CC[C@H](NS(=O)(=O)Cc1ccccc1)C(=O)N1CCC[C@H]1C(=O)N[C@H](C=O)CCCNC(=N)N [Example 27, N-benzylsulfonyl-L-methionine sulfone-L-proline-L-argininal]
Citrated rat plasma
  prolongation of the APTT: prolonged the APTT in a dose dependent manner in both rat and human plasma
Citrated human plasma
  prolongation of the APTT: prolonged the APTT in a dose dependent manner in both rat and human plasma
[1]
  efficacy in preventing thrombus formation (result in words): reduction in the incidence of thrombotic occlusion
